Data reported in patent US20070264276A1, “Vaccine for the prevention and treatment of Alzheimer's and amyloid related diseases” (priority 1999, published 2007).
Square brackets hold non-standard residues; d marks the D form. Ends that are not written are not given here.

Key:
[1] = system: transgenic mouse model of brain amyloidosis; details: vaccinated transgenic mice; cited from earlier work
[2] = Immunization of rabbits with KLVFFA peptide, antibody titers; format: in vivo; details: rabbits immunized, KLH-conjugated peptide, FIG. 7
Procedure: Rabbits were immunized with all-D or all-L KLVFFA.
Standard assays for fibrillogenesis were used to evaluate activity, such as those based on Thioflavine T, circular dichroism and solubility.
Rabbits were immunized with D- or L-Aβ (16-21) peptide. Antibodies raised were tested for their antifibrillogenic activities by ThT assay and by electron microscopy (EM).

Substance	formation of β-amyloid plaque, astrogliosis and neuritic dystrophy [1]	production of antibodies (antibody titers) [2]	production of antibodies (antibody titers) ([2]; listed as Aβ 16-21 (all-D))
human aggregated all-L peptide: human aggregated all-L Aβ peptide used as immunogen in the vaccine of Schenk et al. (1999)	prevented the formation of β-amyloid plaque, astrogliosis and neuritic dystrophy	–	–
Aβ (16-21, all-D) ([dK][dL][dV][dF][dF][dA]) [all-D KLVFFA, KLVFFA]	–	causes production of antibodies	antibodies can be raised
